Measured values: US20130040935A1, “CYCLIC KETO-ENOLS FOR THERAPY” (BAYER INTELLECTUAL PROPERTY GMBH, priority 2010, published 2013)
Like-named read-outs stand apart in the source and are kept apart here.

Legend:
MCF7 = test: Cell proliferation assay (CellTiter-Glo, 96 h), MCF7; type: cell-based; conditions: Homo sapiens, MCF7; Table 7; 96-hour incubation
In short: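 Growth inhibition in percent was based on luminescence differences between treated and control samples after subtracting baseline readings taken at t=0. Cells had been incubated with compound for 96 hours at 37° C. following overnight plating.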

[1] = target: T1, human ACC1 (acetyl-coenzyme A carboxylase alpha transcript variant 1) (Homo sapiens, UniProt Q13085); test: Human ACC1 enzyme assay, Assay B1 (ADP-Glo); type: biochemical
T1 construct: FLAG (C); made in house; host or cells: baculovirus-infected insect cells (Hi5)

[2] = target: acetyl-CoA carboxylase 2 (ACC2) (Homo sapiens, UniProt O00763); test: Human ACC2 enzyme assay, Assay A2 (HTRF ADP immunoassay);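 also: ADP generated by ACC2 quantified via competitive time-resolved FRET between europium cryptate anti-ADP antibody and d2-tagged ADP, enzyme kept in linear range near 0.6 ng/µl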
Experimental: The inhibitory activity of the substances of this invention with regard to acetyl-CoA carboxylase 2 (ACC2) was measured using the ACC2 assay described in the paragraphs below. The basic principle of the assay is the measurement of adenosine diphosphate (ADP), which is formed as a by-product, by means of an HTRF®-based competitive immunoassay (HTRF=Homogeneous Time Resolved Fluorescence).
The amount of complex of d2-labelled ADP and europium cryptate-labelled anti-ADP antibody was then determined by measuring the resonance energy transfer of europium cryptate to d2.

recombinant human ACC1 = recombinant human ACC1 (Homo sapiens, UniProt Q13085); test: Human ACC1 enzyme assay, Assay A1 (HTRF ADP immunoassay);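 also: ADP generated by the enzyme quantified via competitive time-resolved FRET, read as europium cryptate to d2 energy transfer after 1 h at 22 °C with labelled ADP tracer and anti-ADP antibody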
Experimental: The inhibitory activity of the substances of this invention with regard to acetyl-CoA carboxylase 1 (ACC1) was measured using the ACC1 assay described in the paragraphs below. The basic principle of the assay is the measurement of adenosine diphosphate (ADP), which is formed as a by-product, by means of an HTRF®-based competitive immunoassay (HTRF=Homogeneous Time Resolved Fluorescence).
Typical concentrations were in the range of 2.5 ng/μl.
The amount of complex between d2-labelled ADP and europium cryptate-labelled anti-ADP antibody was then determined by measuring the resonance energy transfer from the europium cryptate to d2.

[3] = target: human ACC2 (acetyl-coenzyme A carboxylase 2) (Homo sapiens, UniProt O00763); test: Human ACC2 enzyme assay, Assay B2 (ADP-Glo);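 also: human ACC2 activity read as ADP product, detected by luciferase glow luminescence after residual ATP removal, enzyme near 2 ng/µl in linear range, detection steps at 22 °C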
[4] = Assay B1, read-out: ACC 1 (=B1) IC50

Chain of acetyl-CoA carboxylase 2 (ACC2) (O00763 39-2458 limits assumed): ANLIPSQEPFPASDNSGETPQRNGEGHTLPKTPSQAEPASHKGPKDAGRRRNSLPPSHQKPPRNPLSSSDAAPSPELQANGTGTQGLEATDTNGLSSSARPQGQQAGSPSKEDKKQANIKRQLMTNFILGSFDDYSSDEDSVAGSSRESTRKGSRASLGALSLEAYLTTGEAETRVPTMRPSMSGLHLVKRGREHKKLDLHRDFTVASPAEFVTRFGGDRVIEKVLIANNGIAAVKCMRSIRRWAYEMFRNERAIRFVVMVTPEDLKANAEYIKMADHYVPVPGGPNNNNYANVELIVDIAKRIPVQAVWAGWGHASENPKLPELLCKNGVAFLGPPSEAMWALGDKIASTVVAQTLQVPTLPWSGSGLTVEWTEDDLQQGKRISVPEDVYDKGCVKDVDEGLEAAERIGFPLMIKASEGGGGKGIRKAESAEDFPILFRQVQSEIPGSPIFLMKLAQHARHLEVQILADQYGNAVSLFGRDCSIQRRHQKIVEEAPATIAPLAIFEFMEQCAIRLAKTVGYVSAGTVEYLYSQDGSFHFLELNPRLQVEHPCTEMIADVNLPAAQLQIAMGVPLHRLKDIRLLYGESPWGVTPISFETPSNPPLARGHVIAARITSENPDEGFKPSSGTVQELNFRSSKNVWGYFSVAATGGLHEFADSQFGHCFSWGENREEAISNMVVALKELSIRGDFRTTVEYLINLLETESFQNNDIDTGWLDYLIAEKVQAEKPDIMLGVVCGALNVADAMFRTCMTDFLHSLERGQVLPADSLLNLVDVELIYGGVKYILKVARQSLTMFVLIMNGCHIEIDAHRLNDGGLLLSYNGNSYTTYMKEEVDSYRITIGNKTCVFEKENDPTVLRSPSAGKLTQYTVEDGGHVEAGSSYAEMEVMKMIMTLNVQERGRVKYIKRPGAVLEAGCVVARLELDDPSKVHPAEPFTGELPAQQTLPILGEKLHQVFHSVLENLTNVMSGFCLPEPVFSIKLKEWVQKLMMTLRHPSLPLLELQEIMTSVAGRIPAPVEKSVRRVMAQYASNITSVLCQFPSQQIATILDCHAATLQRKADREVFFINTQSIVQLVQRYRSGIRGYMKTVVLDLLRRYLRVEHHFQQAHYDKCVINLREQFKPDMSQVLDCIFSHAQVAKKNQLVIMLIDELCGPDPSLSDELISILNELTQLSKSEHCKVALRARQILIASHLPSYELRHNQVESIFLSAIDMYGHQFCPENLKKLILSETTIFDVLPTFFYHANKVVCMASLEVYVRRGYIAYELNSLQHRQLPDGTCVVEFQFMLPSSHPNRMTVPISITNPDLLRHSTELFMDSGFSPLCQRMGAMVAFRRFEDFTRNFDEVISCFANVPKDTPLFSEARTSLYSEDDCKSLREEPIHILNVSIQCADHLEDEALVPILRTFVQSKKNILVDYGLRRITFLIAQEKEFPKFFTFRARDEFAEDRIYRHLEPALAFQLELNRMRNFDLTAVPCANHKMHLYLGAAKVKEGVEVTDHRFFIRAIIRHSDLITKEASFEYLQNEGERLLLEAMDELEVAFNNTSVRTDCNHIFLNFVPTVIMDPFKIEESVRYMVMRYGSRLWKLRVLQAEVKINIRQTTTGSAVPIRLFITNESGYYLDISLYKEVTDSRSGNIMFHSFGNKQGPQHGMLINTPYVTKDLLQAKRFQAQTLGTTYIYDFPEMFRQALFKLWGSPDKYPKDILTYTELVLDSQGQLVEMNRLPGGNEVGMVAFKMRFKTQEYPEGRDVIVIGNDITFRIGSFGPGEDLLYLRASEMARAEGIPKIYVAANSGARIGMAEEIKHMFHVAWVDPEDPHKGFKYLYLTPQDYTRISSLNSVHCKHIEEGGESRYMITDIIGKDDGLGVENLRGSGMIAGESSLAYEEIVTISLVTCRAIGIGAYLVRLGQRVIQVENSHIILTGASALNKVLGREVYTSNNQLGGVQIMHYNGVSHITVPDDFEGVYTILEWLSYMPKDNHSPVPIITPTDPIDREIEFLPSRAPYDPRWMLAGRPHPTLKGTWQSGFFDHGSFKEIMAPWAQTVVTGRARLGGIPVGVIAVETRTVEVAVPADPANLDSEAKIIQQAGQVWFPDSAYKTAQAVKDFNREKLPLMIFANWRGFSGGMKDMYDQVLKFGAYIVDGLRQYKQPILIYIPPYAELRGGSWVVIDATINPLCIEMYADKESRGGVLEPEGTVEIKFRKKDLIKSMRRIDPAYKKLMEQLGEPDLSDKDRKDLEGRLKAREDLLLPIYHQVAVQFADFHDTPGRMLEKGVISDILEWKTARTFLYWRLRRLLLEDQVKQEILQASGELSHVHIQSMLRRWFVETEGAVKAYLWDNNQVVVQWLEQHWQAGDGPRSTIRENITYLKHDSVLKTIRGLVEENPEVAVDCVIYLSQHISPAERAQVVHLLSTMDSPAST
Chain of human ACC2 (acetyl-coenzyme A carboxylase 2) (O00763 27-2458 limits assumed): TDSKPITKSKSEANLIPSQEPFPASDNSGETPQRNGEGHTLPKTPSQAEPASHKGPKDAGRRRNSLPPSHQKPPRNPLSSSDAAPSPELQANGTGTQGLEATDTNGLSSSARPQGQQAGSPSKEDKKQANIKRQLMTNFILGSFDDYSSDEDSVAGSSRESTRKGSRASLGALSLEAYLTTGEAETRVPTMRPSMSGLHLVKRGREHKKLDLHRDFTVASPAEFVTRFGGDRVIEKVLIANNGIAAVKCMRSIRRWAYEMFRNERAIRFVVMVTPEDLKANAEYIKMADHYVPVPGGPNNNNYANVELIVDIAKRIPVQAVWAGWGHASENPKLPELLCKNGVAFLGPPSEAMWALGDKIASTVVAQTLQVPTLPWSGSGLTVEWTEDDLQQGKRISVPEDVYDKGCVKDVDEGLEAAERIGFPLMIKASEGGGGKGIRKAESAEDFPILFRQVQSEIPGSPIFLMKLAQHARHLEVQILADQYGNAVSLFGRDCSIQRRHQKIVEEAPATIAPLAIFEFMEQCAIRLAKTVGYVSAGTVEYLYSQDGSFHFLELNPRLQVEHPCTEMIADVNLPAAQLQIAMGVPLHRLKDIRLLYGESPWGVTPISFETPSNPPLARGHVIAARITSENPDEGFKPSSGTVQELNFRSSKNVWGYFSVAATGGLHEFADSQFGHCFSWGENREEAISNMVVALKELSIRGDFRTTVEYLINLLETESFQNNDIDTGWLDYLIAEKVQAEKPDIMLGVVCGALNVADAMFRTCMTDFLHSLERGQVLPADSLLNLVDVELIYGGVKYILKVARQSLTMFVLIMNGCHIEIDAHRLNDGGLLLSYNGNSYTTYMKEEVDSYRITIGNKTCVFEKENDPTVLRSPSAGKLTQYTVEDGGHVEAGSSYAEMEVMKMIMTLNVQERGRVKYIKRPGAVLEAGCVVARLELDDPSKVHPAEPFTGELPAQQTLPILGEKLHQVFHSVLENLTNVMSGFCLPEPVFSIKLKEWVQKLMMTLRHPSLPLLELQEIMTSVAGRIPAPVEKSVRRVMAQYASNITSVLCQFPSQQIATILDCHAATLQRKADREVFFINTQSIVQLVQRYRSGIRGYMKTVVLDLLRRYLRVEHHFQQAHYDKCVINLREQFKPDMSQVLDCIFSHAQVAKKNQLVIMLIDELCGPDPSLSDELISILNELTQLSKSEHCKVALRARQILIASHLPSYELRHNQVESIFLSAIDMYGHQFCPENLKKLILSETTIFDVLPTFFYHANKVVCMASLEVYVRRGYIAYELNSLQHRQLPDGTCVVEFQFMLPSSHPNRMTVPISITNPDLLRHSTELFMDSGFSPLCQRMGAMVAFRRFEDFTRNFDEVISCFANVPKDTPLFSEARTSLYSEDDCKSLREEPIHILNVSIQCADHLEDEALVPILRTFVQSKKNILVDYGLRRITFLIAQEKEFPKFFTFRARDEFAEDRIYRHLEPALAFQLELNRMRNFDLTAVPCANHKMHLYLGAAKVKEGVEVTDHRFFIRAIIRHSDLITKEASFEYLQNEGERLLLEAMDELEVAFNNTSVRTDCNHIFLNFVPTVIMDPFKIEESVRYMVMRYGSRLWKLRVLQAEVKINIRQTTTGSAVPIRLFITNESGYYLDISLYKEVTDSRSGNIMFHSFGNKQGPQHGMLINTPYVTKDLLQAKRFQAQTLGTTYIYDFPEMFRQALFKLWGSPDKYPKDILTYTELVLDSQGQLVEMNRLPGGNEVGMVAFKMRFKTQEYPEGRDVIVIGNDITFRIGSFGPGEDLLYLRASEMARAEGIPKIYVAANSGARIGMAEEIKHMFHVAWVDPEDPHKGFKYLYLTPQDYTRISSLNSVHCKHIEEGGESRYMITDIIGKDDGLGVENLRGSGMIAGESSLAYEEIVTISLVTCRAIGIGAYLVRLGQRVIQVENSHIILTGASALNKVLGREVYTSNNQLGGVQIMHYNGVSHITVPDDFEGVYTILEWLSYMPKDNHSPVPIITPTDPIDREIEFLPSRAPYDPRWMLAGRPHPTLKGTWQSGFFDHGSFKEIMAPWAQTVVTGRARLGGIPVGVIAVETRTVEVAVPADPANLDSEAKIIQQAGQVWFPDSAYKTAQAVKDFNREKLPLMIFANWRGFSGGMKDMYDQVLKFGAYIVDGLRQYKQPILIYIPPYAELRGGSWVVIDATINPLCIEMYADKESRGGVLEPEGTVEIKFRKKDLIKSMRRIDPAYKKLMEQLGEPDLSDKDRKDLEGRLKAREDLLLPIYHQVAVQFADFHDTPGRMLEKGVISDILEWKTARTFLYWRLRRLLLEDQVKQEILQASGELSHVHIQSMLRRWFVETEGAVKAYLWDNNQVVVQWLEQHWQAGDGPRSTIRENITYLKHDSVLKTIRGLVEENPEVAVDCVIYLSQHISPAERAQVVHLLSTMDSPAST

Compound	IC50 (MCF7) [nM]	IC50 [1, 4] [nM]	IC50 [2] [nM]	IC50 (recombinant human ACC1) [nM]	IC50 [3] [nM]	IC50 [1] [nM]
Cc1ccc(-c2ccc(Cl)c(F)c2)cc1C1=C(O)[C@]2(CC[C@H](C)CC2)NC1=O [1-110, (5s,8s)-3-(4′-Chloro-3′-fluoro-4-methylbiphenyl-3-yl)-4-hydroxy-8-methyl-1-azaspiro[4.5]dec-3-en-2-one]	45	80	640	194	488	–
COC[C@H]1CC[C@]2(CC1)NC(=O)C(c1cc(-c3ccc(Cl)c(F)c3)ccc1C)=C2O [1-111, (5s,8s)-3-(4′-Chloro-3′-fluoro-4-methylbiphenyl-3-yl)-4-hydroxy-8-(methoxymethyl)-1-azaspiro[4.5]dec-3-en-2-one]	194	126	592	177	1120	–
COC[C@H]1CC[C@]2(CC1)NC(=O)C(c1cc(-c3ccc(Cl)c(F)c3)ccc1Cl)=C2O [1-113, (5s,8s)-3-(4,4′-Dichloro-3′-fluorobiphenyl-3-yl)-4-hydroxy-8-(methoxymethyl)-1-azaspiro[4.5]dec-3-en-2-one]	46	–	1350	260	2710	101
COCC[C@H]1CC[C@]2(CC1)NC(=O)C(c1cc(-c3ccc(Cl)c(F)c3)ccc1C)=C2O [1-114, (5s,8s)-3-(4′-Chloro-3′-fluoro-4-methylbiphenyl-3-yl)-4-hydroxy-8-(2-methoxyethyl)-1-azaspiro[4.5]dec-3-en-2-one]	43	113	2210	236	1640	–
Cc1ccc(-c2ccc(F)c(F)c2)cc1C1=C(O)C2(CCCCC2)NC1=O [1-115, 3-(3′,4′-Difluoro-4-methylbiphenyl-3-yl)-4-hydroxy-1-azaspiro[4.5]dec-3-en-2-one]	98	–	5040	314	10300	196
COC[C@H]1CC[C@]2(CC1)NC(=O)C(c1cc(-c3ccc(Cl)cc3)ccc1C)=C2O [1-116, (5s,8s)-3-(4′-Chloro-4 methylbiphenyl-3-yl)-4-hydroxy-8-(methoxymethyl)-1-azaspiro[4.5]dec-3-en-2-one]	31	92	280	232	591	–
Cc1ccc(-c2ccc(Cl)cc2)cc1C1=C(O)[C@]2(CC[C@H](CO)CC2)NC1=O [1-117, (5s,8s)-3-(4′-Chloro-4 methylbiphenyl-3-yl)-4-hydroxy-8-(hydroxymethyl)-1-azaspiro[4.5]dec-3-en-2-one]	64	–	812	232	4110	194
Cc1ccc(-c2ccc(Cl)cc2)cc1C1=C(O)[C@]2(CC[C@H](C(F)(F)F)CC2)NC1=O [1-119, (5s,8s)-3-(4′-Chloro-4 methylbiphenyl-3-yl)-4-hydroxy-8-(trifluoromethyl)-1-azaspiro[4.5]dec-3-en-2-one]	37	110	479	203	1080	–
Cc1ccc(-c2ccc(Cl)cc2)cc1C1=C(O)[C@]2(CC[C@](O)(C(F)(F)F)CC2)NC1=O [1-122, (5r,8r)-3-(4′-Chloro-4-methylbiphenyl-3-yl)-4,8-dihydroxy-8-(trifluoromethyl)-1-azaspiro[4.5]dec-3-en-2-one]	288	124	5420	98	6590	–
Cc1ccc(-c2ccc(Cl)c(F)c2)cc1C1=C(O)[C@]2(CC[C@](O)(C(F)(F)F)CC2)NC1=O [1-123, (5r,8r)-3-(4′-Chloro-3′-fluoro-4-methylbiphenyl-3-yl)-4,8-dihydroxy-8-(trifluoromethyl)-1-azaspiro[4.5]dec-3-en-2-one]	309	562	3440	173	11200	–
Cc1ccc(-c2ccc(F)c(F)c2)cc1C1=C(O)[C@]2(CC[C@](O)(C(F)(F)F)CC2)NC1=O [1-124, (5r,8r)-3-(3′,4′-Difluoro-4-methylbiphenyl-3-yl)-4,8-dihydroxy-8-(trifluoromethyl)-1-azaspiro[4.5]dec-3-en-2-one]	1700	467	> 20000	458	> 20000	–
Cc1ccc(-c2ccc(Cl)cc2)c(C)c1C1=C(O)[C@]2(CC[C@](O)(C(F)(F)F)CC2)NC1=O [1-125, (5r,8r)-3-(4′-Chloro-2,4-dimethylbiphenyl-3-yl)-4,8-dihydroxy-8-(trifluoromethyl)-1-azaspiro[4.5]dec-3-en-2-one]	322	217	3990	281	6770	–
Cc1ccc(-c2ccc(Cl)c(F)c2)c(C)c1C1=C(O)[C@]2(CC[C@](O)(C(F)(F)F)CC2)NC1=O [1-126, (5r,8r)-3-(4′-Chloro-3′-fluoro-2,4-dimethylbiphenyl-3-yl)-4,8-dihydroxy-8-(trifluoromethyl)-1-azaspiro[4.5]dec-3-en-2-one]	594	204	6370	300	12400	–
Cc1cc(F)c(-c2ccc(Cl)cc2)cc1C1=C(O)[C@]2(CC[C@](O)(C(F)(F)F)CC2)NC1=O [1-127, (5r,8r)-3-(4′-Chloro-6-fluoro-4-methylbiphenyl-3-yl)-4,8-dihydroxy-8-(trifluoromethyl)-1-azaspiro[4.5]dec-3-en-2-one]	1400	145	4840	216	13400	–
Cc1ccc(-c2ccc(F)c(F)c2)cc1C1=C(O)[C@]2(CC[C@@H](C(F)(F)F)CC2)NC1=O [1-129, (5r,8r)-3-(3′,4′-Difluoro-4-methylbiphenyl-3-yl)-4-hydroxy-8-(trifluoromethyl)-1-azaspiro[4.5]dec-3-en-2-one]	172	267	9610	349	10600	–
Cc1ccc(-c2ccc(Cl)c(F)c2)cc1C1=C(O)[C@]2(CC[C@](O)(C(F)(F)C(F)(F)F)CC2)NC1=O [1-130, (5r,8r)-3-(4′-Chloro-3′-fluoro-4-methylbiphenyl-3-yl)-4,8-dihydroxy-8-(pentafluoroethyl)-1-azaspiro[4.5]dec-3-en-2-one]	61	108	4400	133	5890	–
Cc1cc(F)c(-c2ccc(Cl)cc2)cc1C1=C(O)[C@]2(CC[C@](O)(C(F)(F)C(F)(F)F)CC2)NC1=O [1-131, (5r,8r)-3-(4′-Chloro-6-fluoro-4-methylbiphenyl-3-yl)-4,8-dihydroxy-8-(pentafluoroethyl)-1-azaspiro[4.5]dec-3-en-2-one]	60	98	7620	266	5620	–
CO[C@H]1CC[C@]2(CC1)NC(=O)C(c1cc(-c3ccc(Cl)cc3)c(C)cc1C)=C2O [1-132, (5s,8s)-3-(4′-Chloro-4,6-dimethylbiphenyl-3-yl)-4-hydroxy-8-methoxy-1-azaspiro[4.5]dec-3-en-2-one]	70	–	106	1710	234	912
